Reference: US9089850B2, “Method and apparatus for separation of pharmaceutical materials on the basis of their density” (Syracuse University, priority 2009, dated 2015)
Like-named read-outs stand apart in the source and are kept apart here.

Key:
[1] = polymorphic form expected for the crystallization solvent, previous work [Parmar, 2007]; cited from earlier work
[2] = Density gradient analysis of fresh, quickly crystallized sulfathiazole samples; type: physicochemical; conditions: relative amount of form in density gradient; benzene/chloroform to tetrachloroethylene gradient
Source text: Our density gradient methodology is a refinement and extension to the pharmaceutical industry of existing well-established methodologies in other fields. [Bomstein & Steberl, 1959; Kind & Summerscales, 1966; US 2004/6,709,871 B2; Richards, 1999; ASTM D 1505-98; ISO 1183-2:2004; Yanagi, 2010; Doom, 2010; Chernov, 2009a.b; Moshammer, 2009; Fleurier, 2009; Kato, 2009; Deng, 2008, 2009; Park, 2008; Lu, 2006; Hersam, 2006]. A density gradient is made with a “gradient maker” consisting of two chambers connected through a stopcock and with a second stopcock on one of the containers to an outflow tube. A mixer is used in the outflow chamber.
We have developed this technique to optimize reliability and visibility of the resulting separated materials. In particular, we have created a device that permits the formation of identical gradients in one overall unobstructed container (see FIG. 3 and FIG. 4). These columns are at the outer wall of the overall cylindrical container. A central black column permits viewing of the materials in each column individually. The tubes that will contain the samples of crystalline material are open at the bottom; the gradient maker fills all columns simultaneously forming identical gradients.
A density gradient was prepared in the device described above using a mixture of benzene and chloroform (ρ=1.32 g/cm^3) as one liquid and tetrachloroethylene (ρ=1.62 g/cm^3) as the other.
Fresh crystalline samples of solid sulfathiazole were prepared by crystallizing about 50 mg of sulfathiazole (Sigma-Aldrich lot 028K1522) from water, methanol, ethanol, isopropanol and n-butanol by dissolving them at about 55° C. and then cooling to ambient temperature to form crystals at which point material was harvested. All materials were made at the same time, isolated within an hour of each other and dried with a stream of argon gas.
Based on the density gradient analysis, this rapid crystallization gives from water a mixture of forms III and IV in about equal amount, from both methanol and ethanol form II and III, from isopropanol a mixture of forms I, II and III and from n-butanol form I. The bands for this last material are distinctly more compact than those of the other forms.
One of the major benefits of the gradient method is that it provides an immediate visual report of the number of materials in an API preparation. A qualitative interpretation of the relative amounts of components in the gradient is easily made. A more quantitative estimate could be obtained by a simple light scattering analysis with simple added apparatus that performs either transmission or 90 degree scattering measurements. Calibration of the light scattering signal as a function of the amount of API could be performed using a sample in a very steep gradient (and thus not separated). This would make this a semi-quantitative method.

[3] = cited from earlier work
[4] = Seeding experiment in n-propanol with flotation density test; type: physicochemical; conditions: crystals slowly grown in n-propanol at ambient temperature, seeded with material of form III density
Source text: Parmar, 2007 states that crystallization from n-propanol yields form I and that that form is stable in this solvent. In a seeding experiment we harvested material that was the right density for form III and used this to seed crystallization in n-propanol. The resulting crystals, slowly grown at ambient temperature, are not consistent with form I or form III, but are consistent with form II. The density by a flotation density test indicates this material to be form II. The observation that form II is obtained in this case is quite probably due to the presence of a small amount of form II in the predominantly form III sample. […] That is not the case with our seed crystals.

SMILES | Expected [23] [1] | Form II [2] | Form III [2] | Form IV [2] | further results
Nc1ccc(S(=O)(=O)Nc2nccs2)cc1 [Tube A, sulfathiazole] | Form IV | minor | major | major | –
Nc1ccc(S(=O)(=O)Nc2nccs2)cc1 [Tube B, sulfathiazole] | Form II | major | major | minor | –
Nc1ccc(S(=O)(=O)Nc2nccs2)cc1 [Tube C, sulfathiazole] | Form IV | major | major | minor | –
Nc1ccc(S(=O)(=O)Nc2nccs2)cc1 [Tube D, sulfathiazole] | Form III | major | minor | very | Form I [2]: very
Nc1ccc(S(=O)(=O)Nc2nccs2)cc1 [Tube E, sulfathiazole] | Form I | – | – | – | Form I [2]: major
Nc1ccc(S(=O)(=O)Nc2nccs2)cc1 [form I, sulfathiazole] | – | – | – | – | density ([3]; single crystal x-ray results [Blagden, 1998], listed as I): 1.500
Nc1ccc(S(=O)(=O)Nc2nccs2)cc1 [form II, sulfathiazole] | – | – | – | – | density ([3]; single crystal x-ray results [Blagden, 1998], listed as II): 1.551
Nc1ccc(S(=O)(=O)Nc2nccs2)cc1 [form III, sulfathiazole] | – | – | – | – | density ([3]; single crystal x-ray results [Blagden, 1998], listed as III): 1.569
Nc1ccc(S(=O)(=O)Nc2nccs2)cc1 [form IV, sulfathiazole] | – | – | – | – | density ([3]; single crystal x-ray results [Blagden, 1998], listed as IV): 1.595
Nc1ccc(S(=O)(=O)Nc2nccs2)cc1 [form V, sulfathiazole] | – | – | – | – | density ([3]; synchrotron x-ray powder diffraction study [Chan, 1999]): 1.484
Nc1ccc(S(=O)(=O)Nc2nccs2)cc1 [sulfathiazole] | – | – | – | – | polymorphic form by flotation density test [4]: form II
